Measurements published in US8552175B2, “Sulfur transfer reagents for oligonucleotide synthesis” (A.M. Chemicals, Inc., priority 2009, dated 2013).

Columns and labels:
[1] = system: solid support-bound internucleosidic phosphite triesters; assay: Sulfur transfer in solid phase synthesis of oligonucleotide phosphorothioates, HPLC and ES MS; details: for contact time required for complete sulfur transfer: optimized conditions

Row | Compound | contact time required for complete sulfur transfer ([1]; 0.02 M solution of reagent) [min] | contact time required for complete sulfur transfer ([1]; 0.05 M solution of reagent) [min] | contact time required for complete sulfur transfer ([1]; 0.1 M solution of reagent) [min] | performance in oligonucleotide synthesis compared with compound 1 ([1]; in words) | melting point [°C]
1 | 5-Phenyl-3H-1,2,4-dithiazol-3-thione [Compound 7] | 2 | 1 | 0.5 | substantially similar performance | –
2 | S=c1ncss1 [Compound 6, 3H-1,2,4-dithiazol-3-thione] | – | – | – | – | 73 to 75
